How the values were obtained:
Mouse pharmacokinetics = format: in vivo, female NMRI mice; conditions: intravenous at 3 mg/kg
Procedure: (100 µl) was then removed from both acceptor and donor compartments and mixed with acetonitrile (80 µl) containing an internal standard. The samples were centrifuged (10 min, 5 °C, 3270 g) to sediment precipitated protein and sealed prior to UPLC-MS/MS analysis using a Quattro Premier XE (Waters Corp, USA). Pe was calculated as shown in the below equation:
Pe (nm/sec) = 107 x - In [1 - CA (t) / Cequi]
CA(t) = peak area of compound present in acceptor well at time t = 18000 sec Cequi = [CD(t) * VD + CA(t) * VA] / (VD + VA)
VA = acceptor well volume
CD(t) = peak area of compound present in donor well at time t = 18000 sec Recovery of compound from donor and acceptor wells was calculated and data was only accepted when recovery exceeded 70 %.
Human ether-à-go-go related gene (hERG) K+ assay (Outsourced)
Compounds were tested for inhibition of the human ether-à-go-go-related gene (hERG) K+ channel using IonWorks patch clamp electrophysiology. Eight-point concentration-response curves were generated on 2 occasions using 3-fold serial dilutions from the maximum final assay concentration.
Compound was dosed as a bolus solution intravenously (12) at 3mg free base/kg (dose volume: 5 mL/kg; dose vehicle: 10% DMSO, 90% saline) to female NMRI mice (n=3) or dosed orally (12 and 13) by gavage as a solution at 10 mg free base/kg (dose volume: 10mL/kg; Dose vehicle: 5 or 10% DMSO; 40% PEG400; 50 or 55% distilled water) to female NMRI mice (n=3/dose level). Female NMRI mice were chosen as these represent the sex and strain used for the P.berghei mouse model of malaria. Blood samples (10 µl) were taken from each mouse at 5, 15 and 30 minutes, 1, 2, 4, 6, and 8 hours post-dose, mixed with two volumes of distilled water and stored frozen until UPLC-MS/MS analysis. The level of each compound in mouse blood was determined by UPLC-MS/MS as previously reported.9 Pharmacokinetic parameters were derived from the blood concentration time curve using PKsolutions software v 2.0 (Summit Research Services, USA). […]

[1] = Intrinsic clearance (Cli) in human liver microsomes; format: in vitro ADME; conditions: human liver microsome
Text: (§1) inhibition at top, C= EC50, D= slope, x= inhibitor concentration and y= % inhibition. […]
(§2) reach 100% of inhibition, B was fixed to 100 only when at least 50% of inhibition was reached.
(§3) Plasmodium falciparum late stage (IV-V) gametocyte high content imaging assay Plasmodium falciparum NF54-pfs16-LUC-GFP stage IV-V Gametocytes were produced as described previously.5 Compounds were solubilized in DMSO and serially diluted in three concentrations per log standard curves in DM SO. One µl of compound was subsequently diluted in 25µl of water (4% DMSO) and 5µl transferred into the base of 384 well PerkinElmer CellCarrier plates. Forty-five µl of stage IV-V gametocytes (10%P in 0.1%H) were added to the imaging plates which were in turn sealed with a gas permeable membrane and incubated at 37°C, 5% CO 2, 5% O2, 90% N2 and 60% humidity […]
(§4) Post incubation, 5µl of MitoTracker® Red CM -H2Xros (MTR) solution (0.66ug/ml) was added to all wells and the plates incubated for a further 16hours. The assay plates were then imaged and the number of viable gametocytes determined for test compounds plus 0.4%DMSO and 5µM Puromycin.
(§5) (0.4%DMSO) control values. Percent inhibition was plotted against log compound concentration using a 4 parameter log dose, non-linear regression analysis, with sigmoidal dose response (variable slope) curve fit using Prizm 4.0. IC50 values were obtained from this curve fit. The compound testing was performed in duplicate point within two separate experiments.
(§6) Plasmodium berghei ookinete development assay
(§7) Assay was performed as previously reported.6 Briefly blood containing P. berghei CTRPp-GFP gametocytes was rapidly harvested from infected mice and introduced to test compounds pre-diluted in ookinete medium (to induce gamete formation and support ookinete development) in 96-well plates. Plates were incubated in the dark at 21°C for 22 hr before GFP fluorescence intensity measured in a plate reader. % inhibition of ookinete formation was calculated with reference to the fluorescence intensity values of a positive control (20 µM cycloheximide) and a solvent-only negative control (DMSO). All assays were performed in triplicate independent experiments and EC50 values calculated in Graphpad Prism.
(§8) The aqueous solubility of the test compounds was measured using laser nephelometry, as described previously.7 Compounds were subject to serial dilution from 10 mg/mL to 0.5 mg/mL in DMSO. An aliquot was then mixed with MilliQ water to obtain an aqueous dilution plate with a final concentration range of 100 – 5 μg/mL, with a final DMSO concentration of 1.0%. Triplicate aliquots were transferred to a flat bottomed polystyrene plate which was immediately read on the NEPHELOstar (BMG Lab Technologies). The amount of laser scatter caused by insoluble particulates (relative nephelometry units, RNU) was plotted against compound concentration using a segmental regression fit, with the point of inflection being quoted as the compounds aqueous solubility (μg/mL; […]
(§9) Intrinsic Clearance (Cli) experiments
(§10) The procedure was carried out as reported previously.7 Test compound (0.5 µM) was incubated with female CD1 mouse, male sprague-dawley rat or pooled human mixed gender liver microsomes (Xenotech LLC TM; 0.5 mg/mL 50 mM potassium phosphate buffer, pH 7.4) and the reaction initiated […]
by the addition of excess NADPH (8 mg/mL 50 mM potassium phosphate buffer, pH 7.4). […]

[2] = Intrinsic clearance (Cli) in mouse liver microsomes; format: in vitro ADME; conditions: mouse liver microsome
Text: as §1, §2, §3, §4, §5, §6, §7, §8, §9, §10
by the addition of excess NADPH (8 mg/mL 50 mM potassium phosphate buffer, pH 7.4).
Immediately, at time zero, then at 3, 6, 9, 15 and 30 min an aliquot (50 μL) of the incubation mixture was removed and mixed with acetonitrile (100 μL) to stop the reaction. Internal standard was added to all samples, the samples centrifuged to sediment precipitated protein and the plates then sealed prior to UPLC-MS/MS analysis using a Quattro Premier XE (Waters Corporation, USA).
XLfit (IDBS, UK) was used to calculate the exponential decay and consequently the rate constant (k) from the ratio of peak area of test compound to internal standard at each timepoint. The rate of […]

| MLM Cli [2] [mL min^–1 g^–1] | SMILES | Clb (Mouse pharmacokinetics) [mL min^–1 kg^–1] | HLM Cli [1] [mL min^–1 g^–1] |
| --- | --- | --- | --- |
| <0.5 | O=C(NCCN1CCCC1)c1cc(-c2ccc(CN3CCOCC3)cc2F)nc2ccc(F)cc12 [Compound 41] | – | 1.5 |
| 0.5 | O=C(NCCN1CCCC1)c1cc(-c2ccc(CN3CCOCC3)cc2Cl)nc2ccc(F)cc12 [Compound 42, 2-(2-Chloro-4-(morpholinomethyl)phenyl)-6-fluoro-N-(2-(pyrrolidin-1-yl)ethyl)quinoline-4-carboxamide] | – | – |

Continued, compound first:

| SMILES | MLM Cli [2] [mL min^–1 g^–1] | Clb (Mouse pharmacokinetics) [mL min^–1 kg^–1] | HLM Cli [1] [mL min^–1 g^–1] |
| --- | --- | --- | --- |
| O=C(NCCN1CCCC1)c1cc(NCCCN2CCOCC2)nc2ccc(F)cc12 [Compound 25, 6-Fluoro-2-((3-morpholinopropyl)amino)-N-(2-(pyrrolidin-1-yl)ethyl)quinoline-4-carboxamide] | 0.8 | 14 | <0.5 |
| O=C(NCCN1CCCC1)c1cc(NCCCCN2CCOCC2)nc2ccc(Cl)cc12 [Compound 27, 6-Chloro-2-((4-morpholinobutyl)amino)-N-(2-(pyrrolidin-1-yl)ethyl)quinoline-4-carboxamide] | 2.0 | 4 | <1 |
| O=C(NCCN1CCCC1)c1cc(NCCC2CCOCC2)nc2ccc(Cl)cc12 [Compound 30, 6-Chloro-N-(2-(pyrrolidin-1-yl)ethyl)-2-((2-(tetrahydro-2H-pyran-4-yl)ethyl)amino)quinoline-4-carboxamide] | 2 | 34 | 1 |
| O=C(NCCN1CCCC1)c1cc(-c2ccc(S(=O)(=O)N3CCOCC3)cc2)nc2ccc(F)cc12 [Compound 38, 6-Fluoro-2-(4-(morpholinosulfonyl)phenyl)-N-(2-(pyrrolidin-1-yl)ethyl)quinoline-4-carboxamide] | 1.9 | – | – |

— article PMC5108032, “Discovery of a Quinoline-4-carboxamide Derivative with a Novel Mechanism of Action, Multistage Antimalarial Activity, and Potent in Vivo Efficacy” (Journal of Medicinal Chemistry, 2016)
